Common to all, as to test: DTP human tumour cell line panel, 48 h
Test [1] relates to LOX IMVI melanoma.
Test [2] concerns NCI-H226 lung.
Test [3] relates to OVCAR-3 ovarian.
The subject of test [4] is NCI-H23 lung.
Test [5] relates to SW-620 colon.
The test system of test [6] is A498 renal.
Test [7] deals with IGROV1 ovarian.
For test [8], the system named is RPMI-8226 leukemia.
The subject of test [9] is SR leukemia.
Test [10] deals with MDA-MB-435.

Each structure is given as a SMILES string.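 Test compounds were applied to cells in 96-well plates for 48 hours at 5 doses. At the GI50, growth is halved. TGI is the concentration that stops growth completely.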 Where a SMILES comes first, the peptide text is derived from it. [ ]: non-standard residue; d: D form.

With `CC1OC(=O)N2CCC=CC12` (centres undefined), the TGI in [1], in test [2], in test [3], in test [4], in test [5] and in test [6] was greater than 100 µM throughout. Also, the TGI in [7] and in test [8] was greater than 100 µM throughout.
As for `CC1=CC(=O)N2C(OC[C@@H]2c2ccccc2)O1` (some centres undefined), the TGI in [2], in [9], in [3], in test [4], in [5] and in test [7] was greater than 100 µM in each case. In test [8], the TGI (as a rule, the concentration at which net growth stops) was greater than 100 µM.
On to `Oc1ccc(O)c(-n2cccn2)c1-n1cccn1`, for which the TGI in test [1], in test [3], in [4], in test [5], in test [6] and in test [7] was greater than 100 µM each time. The same compound had a TGI in [8] greater than 100 µM.
For `C[C@@H](C[C@H](CCO)c1ccccc1)c1ccc2ccccc2c1`, the GI50 (usually the concentration that inhibits growth by half) in test [1] was 1.6 µM; in [10], 1.56 µM; in [3], 1.54 µM; in [4], 1.6 µM; in test [5], 1.63 µM; in test [6], 1.16 µM. The GI50 was 1.57 µM in test [7] and 1.85 µM in test [8]. Besides, the TGI turned out to be 2.96 µM in [1]; 2.95 µM in [10]; 2.91 µM in test [3]; 3.38 µM in test [4]; 3.14 µM in test [5]; 2.42 µM in [6]. The total growth inhibition concentration (TGI) stood at 3.01 µM in [7] and 4.26 µM in [8].
On to `C#C[C@@H](CCCC)OC(=O)N[C@H](C)c1ccccc1`, for which the TGI in test [1] is greater than 100 µM; in test [2], 82 µM; in test [9], greater than 100 µM; in test [3] it was greater than 100 µM; in test [5], greater than 100 µM; in test [7], 52.6 µM. In test [8], this compound returned a TGI of 87.6 µM.
For `CSCC[C@H](NC(=O)[C@@H](N)CC(N)=O)C(=O)N[C@@H](Cc1c[nH]c2ccccc12)C(=O)N[C@@H](CCC(N)=O)C(=O)N[C@@H](CCC(=O)O)C(=O)N[C@H](C(=O)NCC(=O)N[C@@H](CCCCN)C(=O)N[C@H](C)C(=O)O)C(C)C` (H-NMWQEVGK[dA]-OH), the TGI in test [1], in test [2], in test [10], in test [3], in [4] and in [5] was greater than 100 µM throughout. The TGI in [6], in test [7] and in test [8] was greater than 100 µM in each case.
Consider `COc1ccc(/C=C2/CSC/C(=C/c3ccc(OC)c(OC)c3)C2=O)cc1OC`, for which the TGI is 2.62 µM in test [1]; 7.15 µM in [2]; greater than 100 µM in test [10]; 5.15 µM in test [3]; 6.13 µM in [4]; 3.63 µM in test [5]. Moreover, the TGI amounted to 15.3 µM in test [6] and 5.99 µM in test [7].
Take `CC1/C(=N/O)CC(c2ccccc2)N(N=O)C1c1ccccc1` (centres undefined): the total growth inhibition concentration (TGI) in test [1], in test [2], in [10], in test [3], in test [4] and in test [5] was greater than 100 µM in each case. Also, the TGI in test [7] and in test [8] was greater than 100 µM in each case.
For the compound `CCCCOP1(=O)CC(C)=C(Cl)C(C)(OC)C1` (centres undefined), the TGI in test [1] is greater than 100 µM; in [2], greater than 100 µM; in test [9], 89.3 µM; in test [3] it was greater than 100 µM; in test [4], greater than 100 µM; in test [5], greater than 100 µM. The same compound had a TGI in [7] greater than 100 µM.
On to `CC1=C(SCCC(=O)OC(C[Se]C2=C(C)C(=O)c3ccccc3C2=O)C(=O)NC(C)(C)C)C(=O)c2ccccc2C1=O` (centres undefined), for which the GI50 in test [1] was 1.4 µM; in [2] it was 1.87 µM; in test [10], 1.77 µM; in test [3], 1.43 µM; in test [4], 1.13 µM; in test [5], 1.36 µM. The figures for the GI50 in test [6], in test [7] and in test [8] were 1.55 µM, 0.771 µM and 0.507 µM, respectively. Moreover, the TGI in [1] came out at 2.9 µM; in test [2] it was 4.14 µM; in test [10] it was 3.77 µM; in test [3], 2.74 µM; in test [4] it was 2.69 µM; in test [5] it was 2.87 µM. The TGI amounted to 2.97 µM in [6], 2.1 µM in test [7] and 2.71 µM in test [8].
Turning to `Cn1cc(-c2csc(-c3cn(C(=O)OC(C)(C)C)c4ccccc34)n2)c2cccnc21`, the GI50 in [1] is 3.53 µM; in [2], 3.07 µM; in [10] it was 1.68 µM; in test [3], 2.26 µM; in test [4], 11.2 µM; in [5], 4.53 µM. Further, the GI50 is 3.86 µM in [6], 6.5 µM in [7] and 7.66 µM in test [8]. In addition, the concentration for total growth inhibition (TGI) in test [1] worked out at 18.6 µM; in [2], 20.6 µM; in test [10], 22.2 µM; in test [3], 5.61 µM; in test [4] it was 30.9 µM; in test [5], 21.6 µM. Moreover, the figures for the TGI in test [6], in [7] and in [8] were 14.4 µM, 31 µM and 36.7 µM, respectively.
Regarding `N#CNC1=NCCC(=O)N1CCc1c[nH]c2ccccc12`, the TGI in [1], in test [2], in [9], in [3], in [4] and in test [5] was greater than 100 µM throughout. Moreover, the concentration for total growth inhibition (TGI) in test [7] and in test [8] was greater than 100 µM in each case.
In the case of `COC1CC(n2cc(F)c(N)nc2=O)OC1CO` (centres undefined), the TGI in test [1], in test [2], in [3], in [4], in test [5] and in test [8] was greater than 100 µM each time.
With `O=C1C(=Cc2ccc(F)cc2)C(=O)c2ccccc21`, the TGI in [2], in [3], in test [4], in [5], in test [6] and in test [7] was greater than 100 µM throughout. For the same compound, in test [8], the TGI was greater than 100 µM.

(Values after PubChem BioAssay (NCI).)
